Source: ChEMBL document CHEMBL1142825, “Synthesis and antiviral activity against Coxsackie virus B3 of some novel benzimidazole derivatives” (Bioorg Med Chem Lett, 2005)
Values after ≈ are worked out from the molar mass of the structure shown. Values joined by “and” are separate entries in the source; they are usually repeats but may differ in a detail not shown here. Equal values may be shown once.

How the values were obtained:
Vero [1] = experiment: Antiviral activity against Coxsackie virus B3 growth by 50% in Vero cells; format: functional, cell-based, Chlorocebus sabaeus
Vero [2] = experiment: Selectivity index (TC50/IC50) against Coxsackie virus B3 in Vero cells; format: functional, Chlorocebus sabaeus
Vero [3] = experiment: Cytotoxic concentration required to inhibit Vero cell growth by 50%; format: functional, Chlorocebus sabaeus; settings: for CC50: Chlorocebus sabaeus, Vero, read-out: TC50 (the source's name)
Vero [4] = experiment: Antiviral activity against Coxsackie virus B3 growth by 50% in Vero cells:not active; format: functional, cell-based, Chlorocebus sabaeus
[5] = Chlorocebus sabaeus, Vero, read-out: IC50

Compound | IC50 (Vero [1]; [5]) [µg/mL] | SI (Vero [2]) | CC50 (Vero [3]) [µg/mL] | IC50 (Vero [4]) | IC50 (Vero [1]; vero) [µg/mL] | TC50 (Vero [3])
O=C(Nc1cccc(Br)c1)c1cccc2[nH]c(-c3ccncc3)nc12 | 4.12 (≈ 10.5 µM) | 2 | < 8.24 |  |  | 
O=C(Nc1ccccc1F)c1cccc2[nH]c(-c3ccncc3)nc12 |  |  | 12.3 (≈ 37 µM) | Not Active |  | 
O=C(Nc1ccccc1)c1cccc2[nH]c(-c3cccnc3)nc12 | 1.17 (≈ 3.72 µM) | 9.17 | 10.7 (≈ 34.2 µM) |  |  | 
O=C(Nc1ccccc1O)c1cccc2[nH]c(-c3ccncc3)nc12 | 4.05 (≈ 12.3 µM) | 4.56 | < 18.5 |  |  | 
Cc1ccccc1NC(=O)c1cccc2[nH]c(-c3ccncc3)nc12 | 2.42 (≈ 7.37 µM) | 11.48 and 4.81 |  |  | 2.23 (≈ 6.79 µM) | <27.8 µg/mL and <10.74 µg/mL
O=C(Nc1cccc(O)c1)c1cccc2[nH]c(-c3ccncc3)nc12 |  |  | < 5.9 | Not Active |  | 
NC(=O)c1cccc2[nH]c(-c3cccnc3)nc12 | 6.2 (≈ 26 µM) | 2.98 | 18.5 (≈ 77.6 µM) |  |  | 
O=C(Nc1ccc([N+](=O)[O-])cc1)c1cccc2[nH]c(-c3ccncc3)nc12 | 18.5 (≈ 51.5 µM) | 2.99 | < 55.5 |  |  | 
O=C(Nc1ccccc1)c1cccc2[nH]c(-c3ccccn3)nc12 | 1.43 (≈ 4.55 µM) | 38.8 | 55.6 (≈ 177 µM) |  |  | 
O=C(NCCO)c1cccc2[nH]c(-c3ccncc3)nc12 |  |  | 141 (≈ 498 µM) | Not Active |  | 
O=C(Nc1ccccc1F)c1cccc2[nH]c(-c3cccnc3)nc12 | 3.23 (≈ 9.72 µM) | 11.4 | 37 (≈ 111 µM) |  |  | 
O=C(NCCO)c1cccc2[nH]c(-c3cccnc3)nc12 | 25.6 (≈ 90.6 µM) | 7.51 | 192 (≈ 682 µM) |  |  | 
NC(=O)c1cccc2[nH]c(-c3ccccn3)nc12 | 7.29 (≈ 30.6 µM) | 7.32 | 53.4 (≈ 224 µM) |  |  | 
O=C(Nc1ccc(Cl)cc1)c1cccc2[nH]c(-c3ccncc3)nc12 | 8.72 (≈ 25 µM) | 2.35 | < 20.9 |  |  | 
O=C(Nc1ccccc1)c1cccc2[nH]c(-c3ccncc3)nc12 | 3.85 (≈ 12.2 µM) | 4.06 | 15.6 (≈ 49.8 µM) |  |  | 
O=C(NCCO)c1cccc2[nH]c(-c3ccccn3)nc12 | 37 (≈ 131 µM) | 4.32 | 160 (≈ 567 µM) |  |  | 
O=C(Nc1ccccc1F)c1cccc2[nH]c(-c3ccccn3)nc12 | 0.54 (≈ 1.62 µM) | 28.3 | 15.3 (≈ 46.1 µM) |  |  | 
NC(=O)c1ncn([C@@H]2O[C@H](CO)[C@@H](O)[C@H]2O)n1 [RIBAVIRIN] | 448 (≈ 1830 µM) | >2.23 | > 1000 |  |  | 
